Test system: 485368-065-R4-J2-PDC spheroids with HUVEC/MSC, viability
Experiment: Anticancer human tumor 485368-065-R4-J2-PDC patient-derived pancreatic carcinoma cell line growth inhibition [CLK]
Conditions: for IC50: curve of first compound; for viability, T/C: stronger effect = lower value; active = viability on the fitted dose curve at most 10% of control; inactive = the rest
How it was run: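 Multi-cell-type spheroids combined patient-derived tumor cells with HUVEC endothelial cells and human mesenchymal stem cells. Paired agents were dosed in half-log steps down from about clinical Cmax, or from 10 microM where Cmax was unknown.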

[1] = second compound 0.0316 µM, first compound 0.0316 µM
[2] = second compound 0.0316 µM, first compound 0.1 µM
[3] = second compound 0.0316 µM, first compound 0.316 µM
[4] = second compound 0.0316 µM, first compound 1 µM
[5] = second compound 0.0316 µM, first compound 3.16 µM
[6] = second compound 0.0316 µM, first compound 10 µM
[7] = second compound 0.1 µM, first compound 0.0316 µM
[8] = second compound 0.1 µM, first compound 0.1 µM
[9] = second compound 0.1 µM, first compound 0.316 µM
[10] = second compound 0.1 µM, first compound 1 µM
[11] = second compound 0.1 µM, first compound 3.16 µM
[12] = second compound 0.1 µM, first compound 10 µM
[13] = second compound 0.316 µM, first compound 0.0316 µM
[14] = second compound 0.316 µM, first compound 0.1 µM
[15] = second compound 0.316 µM, first compound 0.316 µM
[16] = second compound 0.316 µM, first compound 1 µM
[17] = second compound 0.316 µM, first compound 3.16 µM
[18] = second compound 0.316 µM, first compound 10 µM
[19] = second compound 1 µM, first compound 0.0316 µM
[20] = second compound 1 µM, first compound 0.1 µM
[21] = second compound 1 µM, first compound 0.316 µM
[22] = second compound 1 µM, first compound 1 µM
[23] = second compound 1 µM, first compound 3.16 µM
[24] = second compound 1 µM, first compound 10 µM
[25] = second compound 3.16 µM, first compound 0.0316 µM
[26] = second compound 3.16 µM, first compound 0.1 µM
[27] = second compound 3.16 µM, first compound 0.316 µM
[28] = second compound 3.16 µM, first compound 1 µM
[29] = second compound 3.16 µM, first compound 3.16 µM
[30] = second compound 3.16 µM, first compound 10 µM
[31] = second compound 10 µM, first compound 0.0316 µM
[32] = second compound 10 µM, first compound 0.1 µM
[33] = second compound 10 µM, first compound 0.316 µM
[34] = second compound 10 µM, first compound 1 µM
[35] = second compound 10 µM, first compound 3.16 µM
[36] = second compound 10 µM, first compound 10 µM
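Also: spheroids exposed to compounds for seven days.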
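For viability, T/C in this document: 100% = DMSO vehicle control wells.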

C=CC(=O)N1CCN(c2nc(=O)n(-c3c(C)ccnc3C(C)C)c3nc(-c4c(O)cccc4F)c(F)cc23)C(C)C1 (centres undefined) + CNC(=O)c1ccc(Nc2nc(OC3CCCC3)c3c(-c4ccc5nc(C)oc5c4)c[nH]c3n2)c(OC)c1
> 10 µM: IC50 (second compound 0.0316 µM) | IC50 (second compound 0.1 µM) | IC50 (second compound 0.316 µM) | IC50 (second compound 1 µM) | IC50 (second compound 3.16 µM) | IC50 (second compound 10 µM)
inactive: viability, T/C [1] 94% | viability, T/C [2] 110% | viability, T/C [3] 89.5% | viability, T/C [4] 103% | viability, T/C [5] 93.3% | viability, T/C [6] 98.9% | viability, T/C [7] 105% | viability, T/C [8] 98.5% | viability, T/C [9] 99.8% | viability, T/C [10] 109% | viability, T/C [11] 95.9% | viability, T/C [12] 88.8% | viability, T/C [13] 82% | viability, T/C [14] 92.5% | viability, T/C [15] 92.2% | viability, T/C [16] 95% | viability, T/C [17] 80.8% | viability, T/C [18] 72.8% | viability, T/C [19] 85% | viability, T/C [20] 87.9% | viability, T/C [21] 79.4% | viability, T/C [22] 82.8% | viability, T/C [23] 78.1% | viability, T/C [24] 75.7% | viability, T/C [25] 76.7% | viability, T/C [26] 69.7% | viability, T/C [27] 72.2% | viability, T/C [28] 73.8% | viability, T/C [29] 77.5% | viability, T/C [30] 69.8% | viability, T/C [31] 77.8% | viability, T/C [32] 76.4% | viability, T/C [33] 75% | viability, T/C [34] 74.4% | viability, T/C [35] 74.2% | viability, T/C [36] 67.4%

CC(CO)NC(=O)c1cc(-c2ccc(Cl)cc2)nn(-c2cnn(C)c2)c1=O (centres undefined) + CNC(=O)c1ccc(Nc2nc(OC3CCCC3)c3c(-c4ccc5nc(C)oc5c4)c[nH]c3n2)c(OC)c1
inactive: viability, T/C [1] 87.9% | viability, T/C [2] 94.3% | viability, T/C [3] 87.9% | viability, T/C [4] 101% | viability, T/C [5] 89.8% | viability, T/C [6] 103% | viability, T/C [7] 90.5% | viability, T/C [8] 97% | viability, T/C [9] 93.6% | viability, T/C [10] 103% | viability, T/C [11] 92.8% | viability, T/C [12] 97.8% | viability, T/C [13] 82.8% | viability, T/C [14] 84.2% | viability, T/C [15] 82.5% | viability, T/C [16] 75.4% | viability, T/C [17] 86.4% | viability, T/C [18] 85.9% | viability, T/C [19] 83.7% | viability, T/C [20] 69.9% | viability, T/C [21] 73.3% | viability, T/C [22] 73.9% | viability, T/C [23] 70.2% | viability, T/C [24] 77.1% | viability, T/C [25] 72.3% | viability, T/C [26] 67.2% | viability, T/C [27] 71% | viability, T/C [28] 70.6% | viability, T/C [29] 69.3% | viability, T/C [30] 76% | viability, T/C [31] 64.9% | viability, T/C [32] 71.2% | viability, T/C [33] 69.6% | viability, T/C [34] 66.6% | viability, T/C [35] 72.8% | viability, T/C [36] 70.7%
> 10 µM: IC50 (second compound 0.0316 µM) | IC50 (second compound 0.1 µM) | IC50 (second compound 0.316 µM) | IC50 (second compound 1 µM) | IC50 (second compound 3.16 µM) | IC50 (second compound 10 µM)
